Results from paper PMC6297231 (Nature Communications, 2018).

Columns and labels:
Experiment in all cases: cells
Sudhl8 = conditions: Homo sapiens, SU-DHL-8, 6 h, read-out: AZD5991 6h EC50
How it was run: (§1)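 Cells were seeded at 3000 cells/well in their respective growth media and treated with compound. Caspase-3/7 activation was read by Caspase-Glo 3/7 luminescence and viability by CellTiter-Glo; EC50 and GI50 came from dose–response curves. Caspase activation is expressed relative to a cell-kill control set at 100%.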

H2126 = conditions: Homo sapiens, NCI-H2126, 6 h, read-out: AZD5991 6h EC50
How it was run: as §1

DMS114 = conditions: Homo sapiens, DMS-114, 6 h, read-out: AZD5991 6h EC50
How it was run: as §1

NCI-H929 = conditions: Homo sapiens, NCI-H929, 6 h, read-out: AZD5991 6h EC50
How it was run: as §1

ULA = conditions: 6 h, read-out: AZD5991 6h EC50
How it was run: as §1

U266B1 = conditions: 6 h, read-out: AZD5991 6h EC50
How it was run: as §1

DOHH2 = conditions: Homo sapiens, DOHH-2, 6 h, read-out: AZD5991 6h EC50
How it was run: as §1

H1048 = conditions: Homo sapiens, NCI-H1048, 6 h, read-out: AZD5991 6h EC50
How it was run: as §1

Colo205 = conditions: Homo sapiens, COLO 205, 6 h, read-out: AZD5991 6h EC50
How it was run: as §1

MCF7 = conditions: Homo sapiens, MCF7, 6 h, read-out: AZD5991 6h EC50
How it was run: as §1

SBC5 = conditions: Homo sapiens, SBC-5, 6 h, read-out: AZD5991 6h EC50
How it was run: as §1

DMS53 = conditions: Homo sapiens, DMS-53, 6 h, read-out: AZD5991 6h EC50
How it was run: as §1

MALME3M = conditions: Homo sapiens, Malme-3M, 6 h, read-out: AZD5991 6h EC50
How it was run: as §1

MONOMAC6 = conditions: Homo sapiens, MONO-MAC-6, 6 h, read-out: AZD5991 6h EC50
How it was run: as §1

WSUDLCL2 = conditions: Homo sapiens, WSUDLCL2, 6 h, read-out: AZD5991 6h EC50
How it was run: as §1

KMS34 = conditions: KMS-34, 6 h, read-out: AZD5991 6h EC50
How it was run: as §1

RCPIWM1 = conditions: 6 h, read-out: AZD5991 6h EC50
How it was run: as §1

Daudi = conditions: Homo sapiens, 6 h, read-out: AZD5991 6h EC50
How it was run: as §1

BT20 = conditions: Homo sapiens, BT-20, 6 h, read-out: AZD5991 6h EC50
How it was run: as §1

H2110 = conditions: NCI-H2110, 6 h, read-out: AZD5991 6h EC50
How it was run: as §1

HCC1954 = conditions: Homo sapiens, HCC1954, 6 h, read-out: AZD5991 6h EC50
How it was run: as §1

H446 = conditions: Homo sapiens, NCI-H446, 6 h, read-out: AZD5991 6h EC50
How it was run: as §1

H1568 = conditions: NCI-H1568, 6 h, read-out: AZD5991 6h EC50
How it was run: as §1

MAVER1 = conditions: Homo sapiens, Maver1, 6 h, read-out: AZD5991 6h EC50
How it was run: as §1

H647 = conditions: Homo sapiens, NCI-H647, 6 h, read-out: AZD5991 6h EC50
How it was run: as §1

MDAMB231 = conditions: Homo sapiens, MDA-MB-231, 6 h, read-out: AZD5991 6h EC50
How it was run: as §1

SKLU1 = conditions: Homo sapiens, SK-LU-1, 6 h, read-out: AZD5991 6h EC50
How it was run: as §1

EOL1 = conditions: Homo sapiens, EOL1, 6 h, read-out: AZD5991 6h EC50
How it was run: as §1

H196 = conditions: NCI-H196, 6 h, read-out: AZD5991 6h EC50
How it was run: as §1

Ramos = conditions: Homo sapiens, 6 h, read-out: AZD5991 6h EC50
How it was run: as §1

LUDLU1 = conditions: LUDLU-1, 6 h, read-out: AZD5991 6h EC50
How it was run: as §1

A375 = conditions: Homo sapiens, A-375, 6 h, read-out: AZD5991 6h EC50
How it was run: as §1

647V = conditions: Homo sapiens, 6 h, read-out: AZD5991 6h EC50
How it was run: as §1

OCILY7 = conditions: Homo sapiens, OCI-Ly7, 6 h, read-out: AZD5991 6h EC50
How it was run: as §1

EVSAT = conditions: Homo sapiens, EVSA-T, 6 h, read-out: AZD5991 6h EC50
How it was run: as §1

For Cc1c2c(nn1C)CSCc1cc(n(C)n1)CSc1cc(c3ccccc3c1)OCCCc1c(C(=O)O)n(C)c3c-2c(Cl)ccc13 (atropisomer, axis not shown; (Ra)) [(Ra)-7], the EC50 (Sudhl8) was 595 nM, the EC50 (H2126) was 157 nM and the EC50 (DMS114) was 290 nM. The EC50 (NCI-H929) was 60 nM, the EC50 (ULA) was 207 nM and the EC50 (U266B1) was over 30000 nM. For the same compound, the EC50 (DOHH2) was 136 nM, the EC50 (H1048) was over 30000 nM and the EC50 (Colo205) was 121 nM. The EC50 (MCF7) was 313 nM, the EC50 (SBC5) was 1120 nM and the EC50 (DMS53) was over 30000 nM. For the same compound, the EC50 (MALME3M) was over 30000 nM, the EC50 (MONOMAC6) was 268 nM and the EC50 (WSUDLCL2) was 159 nM. It also gave an EC50 (KMS34) of 240 nM, an EC50 (RCPIWM1) of 39 nM and an EC50 (Daudi) of 16100 nM. The EC50 (BT20) was over 30000 nM, the EC50 (H2110) was 226 nM and the EC50 (HCC1954) was 682 nM. The EC50 (H446) was over 30000 nM, the EC50 (H1568) was 300 nM and the EC50 (MAVER1) was 27800 nM. It also gave an EC50 (H647) of over 30000 nM, an EC50 (MDAMB231) of over 30000 nM and an EC50 (SKLU1) of over 30000 nM. For the same compound, the EC50 (EOL1) was 13 nM, the EC50 (H196) was over 30000 nM and the EC50 (Ramos) was 28 nM. The EC50 (LUDLU1) was 1890 nM, the EC50 (A375) was over 30000 nM and the EC50 (647V) was 26500 nM. It also gave an EC50 (OCILY7) of 36 nM and an EC50 (EVSAT) of 160 nM.
